Assay results: PubChem BioAssay (NCI)
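Results reflect a 48-hour exposure of cells in 96-well plates to compound at five concentrations. At the GI50, growth is halved. TGI: total growth inhibition.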 Where a SMILES comes first, the peptide text is derived from it.

What was measured:
Assay in all cases: inhibition of tumour cell growth, NCI panel, 48 h
SNB-75 CNS = tested on: SNB-75 CNS
DU-145 prostate = tested on: DU-145 prostate
MCF7 breast = tested on: MCF7 breast
HT29 colon = tested on: HT29 colon
786-0 renal = tested on: 786-0 renal
CCRF-CEM leukemia = tested on: CCRF-CEM leukemia
SK-MEL-28 melanoma = tested on: SK-MEL-28 melanoma
OVCAR-3 ovarian = tested on: OVCAR-3 ovarian
HCC-2998 colon = tested on: HCC-2998 colon
HOP-92 NSCLC = tested on: HOP-92 NSCLC

| SMILES | TGI (SNB-75 CNS) [µM] | TGI (DU-145 prostate) [µM] | TGI (MCF7 breast) [µM] | TGI (HT29 colon) [µM] | TGI (786-0 renal) [µM] | TGI (CCRF-CEM leukemia) [µM] | TGI (SK-MEL-28 melanoma) [µM] | TGI (OVCAR-3 ovarian) [µM] | TGI (HCC-2998 colon) [µM] | TGI (HOP-92 NSCLC) [µM] | GI50 (DU-145 prostate) [µM] | GI50 (MCF7 breast) [µM] | GI50 (HT29 colon) [µM] | GI50 (CCRF-CEM leukemia) [µM] | GI50 (SK-MEL-28 melanoma) [µM] | GI50 (HOP-92 NSCLC) [µM] |
| --- | --- | --- | --- | --- | --- | --- | --- | --- | --- | --- | --- | --- | --- | --- | --- | --- |
| C[N+]12C=CC=C1C(N1CCCC1)c1scc(-c3ccc(F)cc3)c12 (stereo not given) | > 100 | > 100 | 88.6 | 45.3 | > 100 | 4.4 | > 100 | > 100 | – | – | – | – | – | – | – | – |
| CC(=O)NNc1nc(C)c(C(=O)/C=C/c2ccc(Cl)c(Cl)c2)s1 | > 100 | – | – | > 100 | > 100 | > 100 | > 100 | > 100 | > 100 | > 100 | – | – | – | – | – | – |
| COC(=O)Cn1c(=O)oc2nc(-c3ccccc3)cc(C(F)(F)F)c21 | > 100 | > 100 | > 100 | > 100 | > 100 | – | > 100 | > 100 | > 100 | 89.3 | – | – | – | – | – | – |
| C/C=C\C(CC(=O)OC)CC(=O)N(CCC1CN(S(=O)(=O)C(F)(F)F)c2ccccc21)Cc1ccc(OC)cc1OC (stereo not given) | > 100 | – | > 100 | – | > 100 | – | > 100 | > 100 | > 100 | > 100 | – | – | – | – | – | – |
| C=CCCCC1(C)CCNC1=S (stereo not given) | > 100 | > 100 | > 100 | > 100 | > 100 | – | > 100 | > 100 | > 100 | > 100 | – | – | – | – | – | – |
| Cc1cn(C2CCN(CC3COC(C)(C)O3)O2)c(=O)[nH]c1=O (stereo not given) | > 100 | > 100 | > 100 | > 100 | > 100 | > 100 | > 100 | > 100 | – | > 100 | – | – | – | – | – | – |
| CCOC(=O)c1sc2nc1CSc1sc(=S)sc1SCc1nc(sc1C(=O)OCC)-c1nc(c(C(=O)OCC)s1)CSc1sc(=S)sc1SCc1nc-2sc1C(=O)OCC | > 10 | – | > 10 | > 10 | > 10 | > 10 | > 10 | > 10 | > 10 | > 10 | – | – | – | – | – | – |
| CCC(C)C(NC(=O)C(CC(C)C)NC(=O)CNC(=O)C(NC(=O)C1CCCN1C(=O)C(CC(C)C)NC(=O)C(N)Cc1ccccc1)C(C)CC)C(=O)NC(CC(C)C)C(N)=O (stereo not given) (H-FLPIGLIL-NH2; configuration not given here) | – | > 75 | > 75 | > 75 | > 75 | > 75 | > 75 | > 75 | – | > 75 | – | – | – | – | – | – |
| CC(=O)n1[nH]c(=O)n(-c2ccccc2)c1=O | – | > 100 | > 100 | > 100 | > 100 | > 100 | > 100 | > 100 | > 100 | – | – | – | – | – | – | – |
| NC(N)=NS(=O)(=O)c1ccc(NC(=O)c2cccc3c(N)c4ccccc4nc23)cc1 | > 100 | – | – | – | > 100 | > 100 | > 100 | > 100 | > 100 | – | – | – | – | – | – | – |
| COc1cc(C2c3cc4c(cc3OC(NCCO)C2C)OCO4)cc(OC)c1O (stereo not given) | 77.3 | – | > 100 | > 100 | > 100 | – | > 100 | > 100 | 21.8 | > 100 | – | – | – | – | – | – |
| CCC1CCC2c3c([nH]c4ccc(C)cc34)C3C(=O)N(N(C)C)C(=O)C3C2C1 (stereo not given) | – | > 100 | > 100 | > 100 | > 60.1 | > 100 | > 100 | 2.98 | > 100 | > 100 | – | – | – | – | – | – |
| Cn1cc(-c2nnc(-c3ccc(Cl)cc3)[nH]c2=O)c2ccccc21 | 35.1 | > 51.8 | > 39.6 | > 24.6 | > 44.6 | > 22.7 | > 100 | 14.9 | – | > 100 | – | – | – | – | – | – |
| O=C1C=C(c2ccccc2)O/C1=C\C(=O)c1ccc(Cl)cc1 | 18.2 | > 100 | 34.9 | 13.1 | 28.8 | – | 38.5 | 47.1 | 87.5 | 50 | – | – | – | – | – | – |
| Cc1cc2c(cc1Cl)SC(NNC1=NCCN1)=NS2(=O)=O | > 10 | > 10 | – | > 10 | > 10 | > 10 | > 10 | > 10 | > 10 | – | – | – | – | – | – | – |
| NC(CCCCNCc1ccccc1)C(=O)O (stereo not given) | > 100 | – | – | > 100 | > 100 | > 100 | > 100 | > 100 | > 100 | > 100 | – | – | – | – | – | – |
| CCOC(=O)C(NC(=O)CC)(Nc1ccc(F)cc1F)C(F)(F)F (stereo not given) | > 100 | – | – | > 100 | > 100 | > 100 | > 100 | – | > 100 | – | – | – | – | – | – | – |
| Cc1nc2c3c(ccc2[nH]c1=O)C(=O)c1ccccc1C3=O | 87 | – | – | > 100 | > 100 | – | > 100 | > 100 | > 100 | > 100 | – | – | – | – | – | – |
| COc1ccc(/C=C/C(=O)c2sc(-c3cccnc3)nc2C)cc1 | > 100 | – | – | > 100 | > 100 | > 100 | > 100 | 88.3 | > 100 | > 100 | – | – | – | – | – | – |
| CCOC(=O)N/N=C(\CC)OCC | > 100 | > 100 | > 100 | – | > 100 | > 100 | – | > 100 | > 100 | – | – | – | – | – | – | – |
| CCCCC1(O)CC2CC1C(C)C2(C)C (stereo not given) | > 100 | > 100 | > 100 | > 100 | > 100 | > 100 | > 100 | > 100 | > 100 | – | – | – | – | – | – | – |
| CN1CCN(Cc2nc3c(s2)CCc2sccc2-3)CC1 | > 100 | > 100 | > 100 | > 100 | > 100 | > 100 | 73 | > 100 | > 100 | – | – | – | – | – | – | – |
| C=C1c2nc3ccccc3n2C=C(c2ccc(Cl)cc2)N1c1ccc(OCCN2CCCCC2)cc1 | – | > 100 | > 100 | > 100 | > 45 | – | > 100 | > 45 | > 100 | > 100 | > 100 | > 100 | > 100 | 0.226 | 32.8 | > 100 |
| C/C(=N/O)c1sc(-c2nc(C)c(/C(C)=N\O)s2)nc1C | > 100 | – | – | > 100 | > 100 | > 100 | > 100 | > 100 | > 100 | > 100 | – | – | – | – | – | – |
